21 molecules from PubChem BioAssay (NCI) can be followed below.

Among the test systems are A498 renal; HL-60(TB) leukemia; HCT-15 colon; LOX IMVI melanoma; MCF7 breast; SK-MEL-28 melanoma; T-47D breast; UO-31 renal; NCI/ADR-RES ovarian; NCI-H522 lung.
Assay in all cases: NCI anticancer screen, dose series, 48 h

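Grown in 96-well plates, cells were treated for 48 hours with each compound at five concentrations. Insufficient inhibition: endpoint recorded as highest concentration tested. GI50: concentration for 50% inhibition of growth. TGI is the concentration that stops growth completely.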

Take `COc1cc2c(cc1OCCCCCN1CCN(c3ncnc4ccccc34)CC1)N=CC1CCCN1C2=O` (configuration not stated): the GI50 with A498 renal was 0.018 µM; in the test on HL-60(TB) leukemia it was 0.0254 µM; in the test on HCT-15 colon, 0.206 µM; in the test on LOX IMVI melanoma, 0.0167 µM; in the test with MCF7 breast it was 0.0162 µM; in the test on SK-MEL-28 melanoma, 0.0264 µM. For the same molecule, the GI50 in the test on T-47D breast was 0.0139 µM; in the test with UO-31 renal, 0.03 µM; in the test with NCI/ADR-RES ovarian, 0.378 µM. For the same molecule, the TGI came out at 0.034 µM with A498 renal; 4.09 µM in the test on HCT-15 colon; 0.923 µM with MCF7 breast; 0.0569 µM in the test with SK-MEL-28 melanoma; 0.0428 µM with T-47D breast; 0.198 µM in the test on UO-31 renal. Moreover, the TGI with NCI/ADR-RES ovarian is > 36.4 µM; in the test with NCI-H522 lung it was 0.0269 µM.

For `O=[N+]([O-])c1cc2oc(CSc3ccccc3)nc2cc1Cl`, the TGI is 59.2 µM in the test with A498 renal; > 100 µM in the test with HL-60(TB) leukemia; > 100 µM with HCT-15 colon; > 100 µM in the test with LOX IMVI melanoma; > 100 µM in the test on MCF7 breast; > 100 µM in the test with SK-MEL-28 melanoma. Further, the TGI is > 100 µM in the test on T-47D breast, 87.3 µM in the test on UO-31 renal, 40 µM with NCI/ADR-RES ovarian and > 100 µM with NCI-H522 lung.

Take `CC1OC(O[C@H]2C3C=CO[C@@H](OC4OC(CO)C(O)C(O)C4O)C3[C@@]3(COC(=O)/C=C/c4ccccc4)O[C@@H]23)C(O)C(O)C1O` (some centres not stated): the TGI in the test with A498 renal, in the test on HL-60(TB) leukemia, with HCT-15 colon, in the test with LOX IMVI melanoma, in the test on MCF7 breast and in the test with SK-MEL-28 melanoma was > 100 µM in each case. Further, the TGI with T-47D breast, in the test on UO-31 renal, in the test on NCI/ADR-RES ovarian and in the test on NCI-H522 lung was > 100 µM in each case.

`O=C1CSC2(CC(/C=C/c3cccs3)=NN2c2cccc(S(=O)(=O)O)c2)N1c1nc2ccccc2s1` (configuration not stated): the TGI in the test on A498 renal is 92.7 µM; in the test with HL-60(TB) leukemia, > 100 µM; with HCT-15 colon, > 100 µM; in the test with LOX IMVI melanoma, > 100 µM; with MCF7 breast, > 100 µM; with SK-MEL-28 melanoma it was > 100 µM. The TGI in the test with T-47D breast is 80.2 µM; in the test with UO-31 renal, > 100 µM; in the test on NCI/ADR-RES ovarian, > 100 µM; in the test on NCI-H522 lung, > 100 µM.

For the molecule `Cc1ccc2c(c1)c1ccc3c(c1n2C)C(=O)C=CC3=O`, the TGI in the test with A498 renal is > 8.82 µM; in the test on HL-60(TB) leukemia, 1.69 µM; in the test on HCT-15 colon it was 3.92 µM; in the test with LOX IMVI melanoma, > 10 µM; in the test on MCF7 breast it was 4.99 µM; in the test on SK-MEL-28 melanoma, 4.76 µM. The TGI is 5.08 µM in the test with T-47D breast, 3.17 µM in the test with UO-31 renal, > 7.53 µM with NCI/ADR-RES ovarian and 2.68 µM in the test with NCI-H522 lung.

With `c1ccc(C(C(=Nc2ccc(Cc3ccc(N=C(C(c4ccccc4)c4ccccc4)N4CC4)cc3)cc2)N2CC2)c2ccccc2)cc1`, the TGI in the test with A498 renal was determined as 29.1 µM; in the test on HL-60(TB) leukemia it was 18.4 µM; in the test with HCT-15 colon it was 21.7 µM; with LOX IMVI melanoma, 18.9 µM; in the test with MCF7 breast, 15.4 µM; in the test on SK-MEL-28 melanoma, 21.4 µM. In addition, the TGI was 16.5 µM in the test with T-47D breast, 14.8 µM in the test on UO-31 renal, 24.2 µM in the test with NCI/ADR-RES ovarian and 19.8 µM in the test with NCI-H522 lung.

`Cn1c2ccccc2c2c(=S)c3ccccc3ccc21`: the TGI in the test with A498 renal, in the test on HL-60(TB) leukemia, in the test on HCT-15 colon, in the test on LOX IMVI melanoma, in the test on MCF7 breast and with SK-MEL-28 melanoma was > 100 µM each time. The TGI with T-47D breast, with UO-31 renal, in the test on NCI/ADR-RES ovarian and with NCI-H522 lung was > 100 µM each time.

For the molecule `O=C(CCSC1=NCCCN1)c1ccc(F)cc1`, the TGI came to 44.2 µM with A498 renal; 30.4 µM with HL-60(TB) leukemia; 36.2 µM with HCT-15 colon; 45.1 µM with LOX IMVI melanoma; 20.4 µM with MCF7 breast; 34.6 µM in the test with SK-MEL-28 melanoma. Besides, the TGI in the test with T-47D breast was > 70.6 µM; with UO-31 renal, 20.6 µM; with NCI/ADR-RES ovarian it was > 91.5 µM; in the test on NCI-H522 lung, 3.86 µM.

With `Cc1nc2ccccc2c(-n2cccn2)c1CCn1cccn1`, the TGI in the test with A498 renal, in the test with HL-60(TB) leukemia, in the test on HCT-15 colon, with LOX IMVI melanoma, in the test with MCF7 breast and in the test on SK-MEL-28 melanoma was > 100 µM throughout. Moreover, the TGI in the test with T-47D breast is > 100 µM; with UO-31 renal it was 3.43 µM; in the test on NCI/ADR-RES ovarian, > 100 µM; in the test with NCI-H522 lung, > 100 µM.

As to `Cc1cc(N(C)C)c2ccccc2[n+]1CCCCCCCCCC[n+]1c(C)cc(N(C)C)c2ccccc21`, the TGI was found to be 14 µM in the test on A498 renal; 2.18 µM with HL-60(TB) leukemia; 14.4 µM in the test on HCT-15 colon; 3.24 µM in the test with LOX IMVI melanoma; 26.3 µM in the test with MCF7 breast; 3.54 µM in the test on SK-MEL-28 melanoma. Further, the TGI was 15.2 µM in the test with T-47D breast, 13.1 µM in the test with UO-31 renal, 43.9 µM with NCI/ADR-RES ovarian and > 29.7 µM with NCI-H522 lung.

In the case of `Nc1ncnc2c1ccn2C/C=C/CO`, the TGI with A498 renal, in the test on HL-60(TB) leukemia, in the test on HCT-15 colon, in the test on LOX IMVI melanoma, in the test with MCF7 breast and in the test with SK-MEL-28 melanoma was > 100 µM in each case. The TGI in the test on T-47D breast, in the test on UO-31 renal, in the test on NCI/ADR-RES ovarian and in the test on NCI-H522 lung was > 100 µM in each case.

Turning to `COc1ccc(C(=O)NCCN(C)C)c2nc3ccccc3cc12`, the TGI in the test with A498 renal worked out at 3.76 µM; with HL-60(TB) leukemia, 2.15 µM; in the test on HCT-15 colon it was 7.22 µM; in the test on LOX IMVI melanoma, 1.74 µM; in the test with MCF7 breast, 3.99 µM; in the test with SK-MEL-28 melanoma, 7.11 µM. Further, the TGI in the test on T-47D breast stood at 12.6 µM; in the test on UO-31 renal, 5.14 µM; in the test on NCI/ADR-RES ovarian, 5.22 µM; with NCI-H522 lung it was 2.6 µM.

Consider `CCOC(=O)/C(C(C)=O)=C(\OC(C)=O)c1ccncc1C(=O)O`, for which the TGI in the test with A498 renal, with HL-60(TB) leukemia, with HCT-15 colon, with LOX IMVI melanoma, with MCF7 breast and in the test on SK-MEL-28 melanoma was > 100 µM throughout. Besides, the TGI with T-47D breast, in the test on UO-31 renal, with NCI/ADR-RES ovarian and in the test on NCI-H522 lung was > 100 µM each time.

Consider `CC(C)(C)OC(=O)NC(CSSCC(NC(=O)OC(C)(C)C)C(=O)O)C(=O)O` (configuration not stated), for which the TGI with A498 renal, in the test on HL-60(TB) leukemia, with HCT-15 colon, in the test on LOX IMVI melanoma, in the test on MCF7 breast and with SK-MEL-28 melanoma was > 100 µM throughout. The TGI in the test with T-47D breast, in the test with UO-31 renal, with NCI/ADR-RES ovarian and in the test on NCI-H522 lung was > 100 µM in each case.

As for `CCOC(=O)CC/C(=N/Nc1ccc(Cl)cc1[N+](=O)[O-])C(=O)OCC`, the TGI in the test on A498 renal, with HL-60(TB) leukemia, with HCT-15 colon, with LOX IMVI melanoma, in the test on MCF7 breast and in the test on SK-MEL-28 melanoma was > 100 µM each time. For the same molecule, the TGI in the test with T-47D breast, with UO-31 renal, with NCI/ADR-RES ovarian and in the test on NCI-H522 lung was > 100 µM in each case.

As to `CC(C)N1CCN(c2ccc(OCC3COC(Cn4cncn4)(c4ccc(Cl)cc4Cl)O3)cc2)CC1` (configuration not stated), the TGI was determined as 27.4 µM with A498 renal; 33.3 µM with HL-60(TB) leukemia; 26.5 µM in the test on HCT-15 colon; 30.2 µM with LOX IMVI melanoma; 28.9 µM with MCF7 breast; 12.3 µM in the test on SK-MEL-28 melanoma. For the same molecule, the TGI in the test on T-47D breast is 47.8 µM; with UO-31 renal, > 42.5 µM; in the test with NCI/ADR-RES ovarian, 54.9 µM; in the test on NCI-H522 lung, 30.4 µM.

As to `COc1ccc(N2C(=O)C3c4[nH]c5cc(C)ccc5c4C4CCC(C(C)(C)C)CC4C3C2=O)cc1` (configuration not stated), the TGI with A498 renal, in the test with HL-60(TB) leukemia, in the test on HCT-15 colon, with LOX IMVI melanoma, in the test on MCF7 breast and in the test on SK-MEL-28 melanoma was > 10 µM throughout. For the same molecule, the TGI in the test on T-47D breast, in the test on UO-31 renal, in the test on NCI/ADR-RES ovarian and in the test with NCI-H522 lung was > 10 µM in each case.

Turning to `CCN(C(=O)N[C@@H](C)C(=O)N[C@@H](Cc1ccccc1)C(=O)OC)c1ccccc1`, the TGI in the test with A498 renal is > 100 µM; in the test with HL-60(TB) leukemia, > 100 µM; with HCT-15 colon it was > 100 µM; in the test on LOX IMVI melanoma, > 100 µM; in the test with MCF7 breast, > 100 µM; in the test on SK-MEL-28 melanoma it was 78.8 µM. For the same molecule, the TGI with T-47D breast, in the test on UO-31 renal, in the test on NCI/ADR-RES ovarian and in the test with NCI-H522 lung was > 100 µM throughout.

For `C=C1C(=O)[C@@]23CC[C@@H]4[C@@]5(C)CCC[C@@]4(OC5=O)[C@@]2(C)CC[C@@H]1C3`, the TGI with A498 renal was 11.8 µM; with HL-60(TB) leukemia, > 100 µM; in the test with HCT-15 colon it was 2.44 µM; with LOX IMVI melanoma, 2.96 µM; in the test with MCF7 breast, 2.21 µM; in the test with SK-MEL-28 melanoma, 10.3 µM. The TGI in the test on T-47D breast was found to be 57.9 µM; in the test on UO-31 renal, 3.43 µM; with NCI/ADR-RES ovarian, 21.4 µM; with NCI-H522 lung it was 2.43 µM.

With `C=CCn1c(=O)ccn(/C(=C/C(=O)OCC)C(=O)OCC)c1=O`, the TGI in the test on A498 renal was determined as 33.3 µM; in the test with HL-60(TB) leukemia it was 3.98 µM; in the test on HCT-15 colon, 6.52 µM; in the test on LOX IMVI melanoma, 18.1 µM; in the test with MCF7 breast it was 17.1 µM; in the test on SK-MEL-28 melanoma, 30.6 µM. For the same molecule, the TGI stood at 19 µM in the test on T-47D breast, 28.6 µM in the test with UO-31 renal, 50.8 µM in the test on NCI/ADR-RES ovarian and 7.57 µM in the test with NCI-H522 lung.

As for `O=C(CC(=O)Nc1ccccc1)NNC(Sc1ccccc1)c1cc(N=Nc2ccc(Br)cc2)ccc1O` (configuration not stated), the TGI is 5.84 µM in the test on A498 renal; 1.9 µM with HL-60(TB) leukemia; > 10 µM in the test with HCT-15 colon; > 10 µM with LOX IMVI melanoma; > 10 µM in the test with MCF7 breast; > 10 µM in the test on SK-MEL-28 melanoma. Also, the TGI in the test with T-47D breast, in the test on UO-31 renal, with NCI/ADR-RES ovarian and in the test on NCI-H522 lung was > 10 µM in each case.
